Read-outs that look alike come from different tables or passages of the source.
Columns and labels:
[1] = test system: HIV-LTR promoter (tat transactivation) in 293-EBNA cells; assay: AP reporter gene expression from HIV-LTR promoter with tat expression vector, 293-EBNA cells; assay type: cell-based, HIV; human cells; settings: 293-EBNA cells, HIV promoter, in words
Outline: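 293-EBNA cells were transiently co-transfected with an HIV-LTR-driven secreted placental alkaline phosphatase reporter and a tat(1–72) expression plasmid. At 24 h, the medium was switched to serum-free AIM V before compounds were added at various concentrations. Secreted AP activity was read colorimetrically at 405 nm 19–24 h later.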

[2] = test system: HIV-1 in U1 cells (IL-6 mediated expression); assay: IL-6-mediated HIV-1 p24 antigen expression in chronically infected U1 cells; assay type: cell-based, HIV-1; human cells
Procedure: FIG. 17 illustrates a dose response curves of CT2576 on constitutive, TNF-α, and IL-6-mediated expression of HIV-1 in a chronically infected U1 cell line (left Y-axis) and of CT3537 on HIV expression in PBL acutely infected with the JR-CSF primary isolate (right Y-axis). U1 cells were incubated for four days after the addition of CT2576 with or without TNF-α (20 pg/ml) or IL-6 (1 ng/ml). PBL were inoculated with HIV at 10 ng virus/10^6 cells/well and incubated with various concentrations of CT3537 for 7 days. Each data point represents the average expression levels of HIV-1 p24-antigen in the cell supernatants measured by ELISA from triplicate samples with error bar indicating the SD.
Stable cell lines 293tar, 293tat and 293tat2 were generated by transfections using conditions described in (Tate et al., FASEB J. 4:227-231, 1990) with the plasmid pHIV.AP alone or along with either pHIV.tat or pSV2tat72, respectively. The assay of HIV-1 p24 antigen expression in the chronically HIV-1-infected promonocytic line U1 after 4 days and in acutely infected peripheral blood lymphocytes (PBL) after 7 days were described (Peterson et al., J. Clin. Invest. 89:574-580, 1992, and Brighty et al., Proc Natl. Acad. Sci. USA 88:7802-7805, 1991).
This example illustrates that CT2576 inhibited both constitutive and cytokine-induced HIV expression in a chronically-infected U1 cell line. A chronically HIV-1 infected human promonocyte cell line, U1 (Poli et al., J. Exp. Med. 172:151-158, 1990), was used as a model to see if the inhibitory effect of CT2576 on HIV-LTR driven reporter gene expression could be extended to block HIV replication per se in infected cells. TNF-α and IL-6 have been reported to upregulate the expression of HIV-1 in U1 cells (Poli et al., Proc Natl. Acad. Sci. USA 91:108-112, 1994). U1 cells were plated onto 24-well microtiter plates to study the dose-response effect of CT2576 on the constitutive (10^4 cells/well), TNF-α or IL-6 mediated (2×10^3 cells/well) expression of HIV-1. […]

SMILES | inhibition of AP expression (HIV-LTR promoter) [1] | IC50 ([2]; Human immunodeficiency virus 1, 96 h, read-out: IC50, IL-6 mediated HIV expression, U1 cells, 4 days) | IC50 ([2]; U1 cells, 4 days, read-out: IC50, IL-6 mediated HIV expression) | inhibition of IL-6 mediated HIV-1 expression (p24) ([2]; U1 cells, in words)
CCCCCCCCNCC(O)CCCCCCCCCN1C(=O)CCN(C)C1=O (stereo not shown) [CT1829, 3-(11-octylamino-10-hydroxyundecyl)-1-methyldihydrouracil] | inhibit HIV promoter driven expression |  |  | 
CCCCCCCCNCC(O)CCCCCCCCCn1c(=O)c2c(ncn2C)n(C)c1=O (stereo not shown) [CT2576, 1-(11-octylamino-10-hydroxyundecyl)-3,7-dimethylxanthine] |  | ~1000 nM | < 1000 nM | inhibited

Reference: patent US5985926A, “Method for inhibiting intracellular viral replication” (Cell Therapeutics, Inc., priority 1997, dated 1999)
